Structures are written as SMILES.

From ChEMBL document CHEMBL5728527, “Naphthyridines as inhibitors of HPK1” (2021) come the findings set out here.

Mitogen-activated protein kinase kinase kinase kinase 1, sequence (Q92918 whole entry): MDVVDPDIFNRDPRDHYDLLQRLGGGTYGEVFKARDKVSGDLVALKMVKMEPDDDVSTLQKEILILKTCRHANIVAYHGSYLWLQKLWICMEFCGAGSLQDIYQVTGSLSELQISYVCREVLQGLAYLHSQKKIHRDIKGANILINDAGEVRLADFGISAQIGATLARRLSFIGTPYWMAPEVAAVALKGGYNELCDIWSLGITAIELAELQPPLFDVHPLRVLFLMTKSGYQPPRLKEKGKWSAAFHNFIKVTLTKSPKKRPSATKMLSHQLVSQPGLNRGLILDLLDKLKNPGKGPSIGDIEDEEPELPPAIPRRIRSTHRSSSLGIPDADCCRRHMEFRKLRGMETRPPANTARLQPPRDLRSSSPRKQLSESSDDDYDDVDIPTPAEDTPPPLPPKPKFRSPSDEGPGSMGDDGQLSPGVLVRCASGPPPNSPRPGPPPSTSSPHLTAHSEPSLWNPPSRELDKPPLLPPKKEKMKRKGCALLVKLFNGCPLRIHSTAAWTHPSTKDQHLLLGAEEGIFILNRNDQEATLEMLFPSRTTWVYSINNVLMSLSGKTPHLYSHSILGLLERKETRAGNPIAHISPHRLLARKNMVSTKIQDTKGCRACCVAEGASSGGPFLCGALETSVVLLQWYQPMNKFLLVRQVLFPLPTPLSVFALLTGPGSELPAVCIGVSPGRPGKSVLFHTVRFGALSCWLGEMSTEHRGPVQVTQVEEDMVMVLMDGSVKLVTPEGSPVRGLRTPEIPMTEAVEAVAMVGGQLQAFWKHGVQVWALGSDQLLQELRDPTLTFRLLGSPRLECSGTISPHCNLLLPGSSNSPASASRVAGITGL

The experiment has as its target Mitogen-activated protein kinase kinase kinase kinase 1 (Homo sapiens, UniProt Q92918). Description: Binding Assay: Lanth: For the binding assay, 4 ul 2×HPK1 and Eu-anti-GST antibody were added to each well of the assay plate using a Multidrop reagent dispenser. The solutions were incubated in a 23 C incubator for 1 h. To each well of the assay plate was added 4 ul 2× Tracer-222 using a Multidrop reagent dispenser. The solutions were again incubated in a 23 C incubator for 1 h. The results of the assay were read using an Envision plate reader with the following parameters: TR_FRET, 340ex/615 and 665em; 100 usec Delay; and 200 usec integration.
One may read the Ki as the equilibrium dissociation constant of an inhibitor or competing ligand from its target. A high value points to lower affinity. `Cc1ccncc1-c1cc2cc(NC(=O)[C@@H]3C[C@H]3F)ncc2c(N)n1` (single isomer, unassigned) showed an inhibition constant Ki of 2.8 nM.

`Cc1ccncc1-c1cc2cc(NC(=O)[C@@H]3C[C@H]3C#N)ncc2c(N)n1` (single isomer, unassigned): the Ki stood at 4.06 nM.

`CCc1ccncc1-c1cc2cc(NC(=O)[C@H]3C[C@H]3C#N)ncc2c(N)n1` (single isomer, unassigned) had a Ki of 3.64 nM.

`CCc1ccncc1-c1cc2cc(NC(=O)[C@@H]3C[C@H]3C#N)ncc2c(N)n1` (single isomer, unassigned) came in with a Ki of 7.36 nM.

On to `Cc1ccncc1-c1cc2cc(NC(=O)[C@H]3[C@@H]4COC[C@@H]43)ncc2c(N)n1` (single isomer, unassigned), for which the Ki worked out at 4.9 nM.
